Assay results taken from US8546447B2, “Treatment of acne using derivatives of 5-aminolevulinic acid” (Photocure ASA, priority 2004, dated 2013).

How the values were obtained:
[1] = test system: Propionibacterium acnes (P. acnes); assay: Dark toxicity of ALA esters in P. acnes (survival assay, colony forming ability); assay type: cell-based; conditions: for % CFU (mean normalised colony-forming units): 4 hours in the dark at 37° C.; for dark toxicity (FIG. 2): Example 1, concentrations up to 20 mM, 4 hours in the dark
Description: (§1) Propionibacterium acnes (P. acnes) was obtained from American Type Culture Collection (ATCC No. 6919), and bacteria were grown anaerobically in the dark on blood-agar plates at 37° C.
(§2) PIPES buffer (ca. 1 ml) was added to each blood-agar petri-plate and with the help of a sterile glass-rod and a Pasteur pipette, the bacteria solution was transferred to a 20 ml test-tube. The suspension was then diluted with PIPES buffer until the optical density (OD) was 1.00±0.01 at 550 nm as measured by a spectrophotometer.
(§3) A bacteria sample (100 μl of the suspension containing approx. 5×10^8 bacteria per ml) was collected and used as a t=0 control. Aliquots of the bacteria suspension were mixed with suitable volumes of the stock solutions of 5-ALA esters (containing 100 mM ALA ester) to obtain the appropriate concentrations and incubated for 4 hours at 37° C. in the dark. If illumination was not performed, survival was then assessed as described below.
(§4) After treatment with ALA esters (with or without illumination), the treated bacteria samples (as well as untreated controls) were collected and further diluted with PIPES buffer to 1×10^4 bacteria per ml. Aliquots of 20 ml of this suspension were then transferred to Bactoagar Petri-dishes (Futsaether et al., Can. J. Microbiol., 39(2): 180-186 1993), and incubated for 3-5 days at 37° C. in the dark. The colonies formed on the Bactoagar Petri-plates were counted using a colony counter. Cell survival after incubation with different concentrations of 5-ALA esters is given relative to the control samples (i.e. samples collected at t=0 hrs and the sample collected after 4 hrs incubation without 5-ALA ester) and given as percent survival: Survival=[Ctreated/Ccontrol]×100%
In order to find suitable conditions for studying the photodynamic effect in P. acnes after incubation with ALA esters, a study was performed to assay the toxicity of the esters. This was done in the dark to avoid any PDT effect caused by stray light.
In order to find suitable conditions for studying the photodynamic effect in P. acnes after incubation with benzyl-, 4-chlorobenzyl-, 4-nitrobenzyl-, 2-methylbenzyl-, 4-methylpentyl- and 2-methoxyethyl 5-aminolevulinate, a study was performed to assay the toxicity of these compounds. This was done in the dark, as in Example 1, to avoid any PDT effect caused by stray light.

[2] = test system: P. acnes; assay: PDT with CureLight LED 128 (Aktilite) lamp, P. acnes survival; assay type: cell-based, Propionibacterium acnes; conditions: for PDT effect, photodynamic inactivation (FIG. 10) / kill: 0.4 mM; for PDT effect, photodynamic inactivation (FIG. 10): Aktilite 128 lamp; for kill: 10 minutes illumination; for bacteria killed: 26 minutes of illumination (78 J/cm^2)
Description: as §1
as §2, with “spectrophotometer. At this OD the bacteria density is approximately 5×10^8 cells per ml.” for “spectrophotometer.”
as §3, §4
In order to compare the ALA hexyl ester and the ALA benzyl ester at the same concentration (1 mM), and also to test another light source, another experiment involving the use of a narrow-band red light (CureLight LED 128 lamp sold under the tradename Aktilite by Photocure ASA, Norway) was conducted. This lamp consists of 128 light emitting diodes (LED) and has a peak wavelength of 634±3 nm. The emission spectrum of the lamp has a full width at half maximum (FWHM) of 18 nm. The fluence rate at 50 mm distance is approx. 50 mW/cm^2 (max. fluence rate variation of the target area is ±10%).
After incubation with the ALA esters, 10 ml bacterial suspensions were irradiated in a 5.5 cm plastic petri-dish (see general section above). The petri-dishes were placed on a support lying in a large water-reservoir at ambient temperature in order to avoid temperature effects. […] After 3-5 days of incubation (at 37° C. in the dark) the survival was determined as described in the general section and given relative to the non-illuminated control sample.
Photodynamic inactivation of P. acnes after incubation with the 5-ALA esters listed in Example 9 (at 0.4 mM concentration) was studied following illumination with an Aktilite® 128 lamp.

[3] = test system: P. acnes; assay: PDT with CureLight BroadBand lamp, P. acnes survival; assay type: cell-based, Propionibacterium acnes; conditions: for effectiveness to kill the bacteria (FIG. 3): 4 mM methyl ester, 4 mM benzyl ester, 1 mM hexyl ester, red light 580-740 nm
Description: as §1
as §2, with “spectrophotometer. At this OD the bacteria density is approximately 5×10^8 cells per ml.” for “spectrophotometer.”
as §3
In some cases, illumination was performed on the bacteria-suspensions treated with ALA esters. The exact conditions are described in the Examples below. After illumination, survival was assayed as described below.
as §4
Bacteria suspensions (P. acnes) were treated with 4 mM ALA methyl ester, 4 mM benzyl ester and 1 mM hexyl ester (due to high dark toxicity results for this ester) as described in the general section above, diluted and illuminated using a CureLight BroadBand lamp (available from PhotoCure ASA, Norway, red light of 580-740 nm and a fluence rate of ≦840 W/m^2) under temperature controlled conditions (e.g. at ambient temperature). During illumination, 2×20 μl aliquots were collected every second minute for at total of 10 minutes and assayed for survival as described in the general section above. Relative survival after illumination was calculated relative to the control sample without red light exposure.

[4] = test system: P. acnes; assay: Intracellular porphyrin formation in P. acnes (fluorescence emission); assay type: cell-based, Propionibacterium acnes; conditions: four hours incubation at 37° C. in the dark, various concentrations
Description: To study the intracellular porphyrin formation after incubation with the ALA esters, bacteria (5×10^8 cells per ml, 10 ml) were incubated with ALA esters at 37° C. in the dark for four hours. The formation of porphyrins was followed by studying the fluorescence emission spectra (the porphyrins display characteristic peaks). The procedure was as follows:
To assess the amount of endogenously retained porhyrins, 8 ml of the 5-ALA ester incubated bacteria were added to plastic test-tubes and incubated at 2-3° C. in the refrigerator to halt further 5-ALA ester uptake and/or porhyrin formation. Then the cells from were pelleted by centrifugation (5000 g, 5 rain, 2-3° C.), the supernatant discarded and the cells resuspended in fresh buffer (8 ml) and mixed well. Aliquots of 2 ml bacterial suspension were transferred to standard disposable plastic cuvettes, and fluorescence emission spectra of the cell suspensions were determined in a Perkin Elmer LS 50B fluorescence spectrometer using the following settings:
Excitation wavelength, λx: 405 nm
Emission wavelength, λe: 550-700 nm
Excitation and emission slits: 5 nm
Emission monochromator speed: 300 nm/min
The fairly broad range of wavelengths measured was motivated by the need to have a control of the autofluorescence from the bacteria, which is most easily discernable at the lower or higher wavelengths.

[5] = test system: P. avidum; assay: Dark toxicity in P. avidum; assay type: cell-based, Propionibacterium avidum
Description: Propionibacterium avidum (P. avidum) was obtained from ATCC (ATCC No. 25577).
as §2, with “spectrophotometer. At this OD the bacteria density is approximately 5×10^8 cells per ml.” for “spectrophotometer.”
as §3
After treatment with ALA esters (with or without illumination), the treated bacteria samples (as well as untreated controls) were collected and further diluted with PIPES buffer to 1×10^4 bacteria per ml. Aliquots of 20 ml of this suspension were then transferred to Bactoagar Petri-dishes (Futsaether et al., Can. J. Microbiol., 39(2): 180-186 1993), and incubated for 3-5 days at 37° C. in the dark. The colonies formed on the Bactoagar Petri-plates were counted using a colony counter. […]

[6] = test system: P. granulosum; assay: Dark toxicity in P. granulosum; assay type: cell-based, Propionibacterium granulosum
Description: Propionibacterium granulosum (P. granulosum) was obtained from American Type Culture Collection (ATCC No. 25564).
as §2, with “spectrophotometer. At this OD the bacteria density is approximately 5×10^8 cells per ml.” for “spectrophotometer.”
as §3
After treatment with ALA esters (with or without illumination), the treated bacteria samples (as well as untreated controls) were collected and further diluted with PIPES buffer to 1×10^4 bacteria per ml. […] The colonies formed on the Bactoagar Petri-plates were counted using a colony counter. […]

[7] = Itoh et al. 2001; Hongcharau et al. 2000; cited from earlier work
[8] = Example 9, concentrations up to 20 mM
[9] = hexylester compared with benzylester

Row | SMILES | % CFU (mean normalised colony-forming units) ([1]; 0.4 mM) | % CFU (mean normalised colony-forming units) ([1]; 4 mM) | % CFU (mean normalised colony-forming units) ([1]; 20 mM) | PDT effect, photodynamic inactivation (FIG. 10) [2] | kill [2] | effectiveness to kill the bacteria (FIG. 3) [3] | dark toxicity (FIG. 2) [1] | inducing porphyrin formation (FIG. 5) [4] | further results
1 | CC(C)CCCOC(=O)CCC(=O)CN [4-methylpentyl, 4-methylpentyl ALA ester] | 86.5% | 37.3% | 0.5% | weaker PDT effect | – | – | – | – | –
2 | Cc1ccccc1COC(=O)CCC(=O)CN [2-methylbenzyl, 2-methylbenzyl ALA ester] | 66.0% | 1.2% | 0.0% | good abilities to kill the bacteria | approx. 50% | – | – | – | dark toxicity (in words) ([1]; Example 9, at 4 mM): considerable toxicity
3 | COC(=O)CCC(=O)CN [ALA methyl ester, methyl ALA ester] | – | – | – | – | – | least effective | essentially non-toxic | slightly higher porphyrin levels | –
4 | NCC(=O)CCC(=O)OCc1ccc([N+](=O)[O-])cc1 [4-nitrobenzyl, 4-nitrobenzyl ALA ester] | 63.5% | 61.8% | 53.2% | most efficient | ~100% | – | – | – | dark toxicity (in words) [1, 8]: almost no toxicity
5 | NCC(=O)CCC(=O)OCc1ccccc1 [Benzyl, benzyl 5-aminolevulinate] | 78.3% | 62.9% | 15.0% | good abilities to kill the bacteria | approx. 50% | most effective | intermediate toxicity | by far the most effective inducer | light dose sufficient to obtain 100% kill ([3]; 4 mM, CureLight BroadBand lamp): approx. 10 J/cm^2; bacteria killed ([2]; 1 mM): killed all bacteria; photodynamic effect (FIG. 4) ([2]; 1 mM, LED lamp 634 nm): much better photodynamic effect
6 | CCCCCCOC(=O)CCC(=O)CN [ALA hexyl ester, Hexyl 5-aminolevulinate] | – | – | – | – | – | quite effective | very toxic | least effective | killed ([5]; 4 mM, dark): 100%; dark toxicity (FIG. 6) [5, 9]: considerably more toxic; killed ([6]; 4 mM, dark): 100%; dark toxicity (FIG. 6) [6, 9]: considerably more toxic; bacteria killed ([2]; 1 mM): 40%
7 | NCC(=O)CCC(=O)O [5-ALA, 5-amino-4-oxo-pentanoic acid] | – | – | – | – | – | – | – | – | adverse effects of ALA-PDT [7]: significant adverse effects; efficacy of ALA-PDT for treatment of acne [7]: may be effective
8 | COCCOC(=O)CCC(=O)CN [2-methoxyethyl, 2-methoxyethyl 5-aminolevulinate] | 75.5% | 60.8% | 54.0% | weaker PDT effect | – | – | – | – | dark toxicity (in words) [1, 8]: almost no toxicity
9 | NCC(=O)CCC(=O)OCc1ccc(Cl)cc1 [4-chlorobenzyl, 4-chlorobenzyl ALA ester] | 81.6% | 3.7% | 0.0% | most efficient | ~100% | – | – | – | dark toxicity (in words) ([1]; Example 9, at 4 mM): considerable toxicity
